These compounds were tested against Recombinant human HSD17B13 (Homo sapiens (Human), UniProt Q7Z5P4) (assay: HSD17B13 rapid-fire mass spectrometry assay (RF/MS assay)). Conditions: inhibition of HSD17B13; LTB4 10 μM, NAD+ 0.5 mM, RT 3 h; IC50 ranges A-E.
Type: biochemical
How it was run: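 Sf9-expressed human HSD17B13 (80 nM) with 10 μM LTB4 and 0.5 mM NAD+, incubated with compound (0–100 μM) for 3 h at RT in Tris pH 7.5/BSA/Tween-20. After formic acid quench, LTB4 conversion to 12-oxo-LTB4 measured by RapidFire MS/MS. IC50 from normalised residual activity, duplicates.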

Recombinant human HSD17B13, sequence (Q7Z5P4 20-300): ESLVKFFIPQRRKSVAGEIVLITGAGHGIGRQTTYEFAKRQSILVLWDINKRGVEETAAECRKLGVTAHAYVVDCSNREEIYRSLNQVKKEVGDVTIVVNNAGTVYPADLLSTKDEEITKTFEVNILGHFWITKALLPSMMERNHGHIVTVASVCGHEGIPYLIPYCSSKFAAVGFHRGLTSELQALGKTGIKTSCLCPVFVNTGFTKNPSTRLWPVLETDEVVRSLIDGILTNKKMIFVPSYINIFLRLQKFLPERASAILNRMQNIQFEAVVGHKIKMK

IC50 | Compound
0.1 to 0.5 µM | COc1cc(C(=O)O)ccc1NS(=O)(=O)c1csc(-c2ccc(O)cc2)n1 [Example 128]
1 to 100 µM | COc1cc(C(=O)O)c(C)cc1NS(=O)(=O)c1csc(-c2ccc(C3CCC(C)(C)CC3)cc2C(F)(F)F)n1 [Example 702]
0.1 to 0.5 µM | COc1cc(C(=O)O)c(F)cc1NS(=O)(=O)c1csc(-c2ccc(-c3ccc(C4CCC(C(C)C)CC4)cc3C(F)(F)F)cc2C(F)(F)F)n1 (stereo not drawn) [Example 753]
0.1 to 0.5 µM | COc1cc(C(=O)O)c(F)cc1NS(=O)(=O)c1csc(-c2ccc(C3CC4CCC(C4)C3)cc2)n1 (stereo not drawn) [Example 534]
< 0.1 µM | COc1cc(C(=O)O)c(F)cc1NS(=O)(=O)c1csc(-c2ccc(C3=CCC(C(C)(C)C)CC3)c(F)c2C)n1 (stereo not drawn) [Example 594]
< 0.1 µM | COc1cc(C(=O)O)c(F)cc1NS(=O)(=O)c1csc(-c2ccc(C3(O)CCC(C)(C)CC3)cc2)n1 [Example 748]
> 100 µM | Cn1nc(C(=O)O)cc1NS(=O)(=O)c1cnc(-c2ccc(F)cc2)s1 [Example 91]
1 to 100 µM | COc1cc(C(=O)O)ccc1NS(=O)(=O)c1csc(-c2cccnc2)n1 [Example 143]
< 0.1 µM | COc1cc(C(=O)O)ccc1NS(=O)(=O)c1csc(-c2ccc(C3=CCCCC3)cc2)n1 [Example 349]
1 to 100 µM | COc1cc(C(=O)O)ccc1NS(=O)(=O)c1csc(-c2ccc(C(=O)O)cc2)n1 [Example 117]
1 to 100 µM | O=C(O)c1ccc(NS(=O)(=O)c2cnc(-c3ccc(F)cc3)s2)c2ccccc12 [Example 87]
< 0.1 µM | COc1ccc(C#Cc2nc(S(=O)(=O)Nc3ccc(C(=O)O)cc3OC)cs2)c(C(C)C)c1 [Example 399, 4-((2-((2-isopropyl-4-methoxyphenyl)ethynyl)thiazole)-4-sulfonamido)-3-methoxybenzoic acid]
< 0.1 µM | CCc1cc(C2=CCC(C)(C)CC2)ccc1-c1nc(S(=O)(=O)Nc2cc(F)c(C(=O)O)cc2OC)cs1 [Example 563]
1 to 100 µM | COc1cc(C(=O)O)ccc1NS(=O)(=O)c1csc(C#Cc2ccc(C(=O)O)c(OC(F)(F)F)c2)n1 [Example 394]
1 to 100 µM | O=C(O)c1cnc(NS(=O)(=O)c2cnc(-c3ccc(F)cc3)s2)o1 [Example 104]
1 to 100 µM | COc1cc(C(=O)O)ccc1NS(=O)(=O)c1csc(N2CCC(c3ccccn3)CC2)n1 [Example 262]
0.1 to 0.5 µM | CCCCC[C@H]1CC[C@H](c2ccc(-c3ncc(S(=O)(=O)Nc4cc(F)c(C(=O)O)cc4OC)s3)cc2)CC1 [Example 628]
1 to 100 µM | CC[C@H]1CC[C@H](c2ccc(-c3nc(S(=O)(=O)Nc4cc5nc[nH]c(=O)c5cc4OC)cs3)cc2)CC1 [Example 575]
< 0.1 µM | COc1cc(C(=O)O)c(F)cc1NS(=O)(=O)c1csc(-c2ccc(C3=CCC(C(C)C)CC3)c(F)c2F)n1 (stereo not drawn) [Example 771]
0.1 to 0.5 µM | COc1cc(C(=O)O)c(F)cc1NS(=O)(=O)c1csc(-c2ccc(-c3ccc(C45CC6C[C@H](C4)C[C@H](C6)C5)cc3)c(OC)c2)n1 [Example 743]
< 0.1 µM | O=C(O)c1cc(O)c(NS(=O)(=O)c2cnc(-c3ccc(F)cc3)s2)cc1F [Example 61]
1 to 100 µM | O=C(O)c1ccc2sc(NS(=O)(=O)c3cnc(-c4ccc(F)cc4)s3)nc2c1 [Example 388, 2-((2-(4-fluorophenyl)thiazole)-5-sulfonamido)benzo[d]thiazole-5-carboxylic acid]

IC50 | Compound
1 to 100 µM | CCC[C@H]1CC[C@H](C2CC=C(c3ccc4c(c3)CN(S(=O)(=O)Nc3ccc(C(=O)O)cc3OC)C4)CC2)CC1 (stereo partly drawn) [Example 377, 3-methoxy-4-((5-((1S,1′s,4′S)-4′-propyl-[1,1′-bi(cyclohexan)]-3-en-4-yl)isoindoline)-2-sulfonamido)benzoic acid]
0.1 to 0.5 µM | COCCOc1c(C2=CCC(C)(C)CC2)ccc(-c2nc(S(=O)(=O)Nc3cc(F)c(C(=O)O)cc3OC)cs2)c1F [Example 577]
0.1 to 0.5 µM | CC[C@H]1CC[C@H](c2ccc(-c3nc4cc(S(=O)(=O)Nc5cc(F)c(C(=O)O)cc5OC)ccc4o3)cc2)CC1 [Example 670, 4-((2-(4-((1r,4r)-4-ethylcyclohexyl)phenyl)benzo[d]oxazole)-5-sulfonamido)-2-fluoro-5-methoxybenzoic acid]
1 to 100 µM | COc1ccc(NS(=O)(=O)c2cnc(-c3ccc(F)cc3)s2)cc1 [Example 42]
0.1 to 0.5 µM | COc1cc(C(=O)O)c(F)cc1NS(=O)(=O)c1csc(-c2ccc(-c3ccc(C45CC6C[C@H](C4)C[C@H](C6)C5)cc3)c(F)c2F)n1 [Example 739]
0.5 to 1 µM | COc1cc(C(=O)O)ccc1NS(=O)(=O)c1csc(-c2ccc(OC)c3ccccc23)n1 [Example 154]
< 0.1 µM | C=C(c1ccc(-c2ncc(S(=O)(=O)Nc3ccc(C(=O)O)cc3OC)s2)cc1)C1CC1 [Example 450]
1 to 100 µM | COc1cc(C(=O)O)ccc1NS(=O)(=O)c1csc(N2Cc3ccccc3C2)n1 [Example 255]
1 to 100 µM | CC(C)Oc1cc(C(=O)O)ccc1NS(=O)(=O)c1cnc(-c2ccc(F)cc2)s1 [Example 37]
0.1 to 0.5 µM | COc1cc(C(=O)O)ccc1NS(=O)(=O)c1csc(-c2ccccc2F)n1 [Example 96]
0.1 to 0.5 µM | COc1cc(C(=O)O)cnc1NS(=O)(=O)c1cnc(-c2ccc(F)cc2)s1 [Example 85]
< 0.1 µM | COc1cc(C(=O)O)c(F)cc1NS(=O)(=O)c1csc(-c2ccc(C3CCC(C)(C)CC3)c(OC(C)C)c2F)n1 [Example 567]
0.5 to 1 µM | O=C(O)c1ccc(NS(=O)(=O)c2cnc(-c3ccc(F)cc3)s2)cc1F [Example 21]
0.1 to 0.5 µM | COc1cc(C(=O)O)ccc1NS(=O)(=O)c1ccc2ccc(S(=O)(=O)Nc3ccc(C(=O)O)cc3OC)cc2c1 [Example 162]
0.1 to 0.5 µM | COc1ccc(C#Cc2nc(S(=O)(=O)Nc3ccc(C(=O)O)cc3OC)cs2)cc1 [Example 177]
< 0.1 µM | COc1cc(C(=O)O)c(F)cc1NS(=O)(=O)c1csc(-c2ccc(C3CCC(C)(C)CC3)cc2OC(F)(F)F)n1 [Example 543]
0.1 to 0.5 µM | COc1cc(C(=O)O)ccc1NS(=O)(=O)c1coc(-c2ccc(C3=CCC(C)(C)CC3)cc2)n1 [Example 464]
0.1 to 0.5 µM | COc1cc(C(=O)O)ccc1NS(=O)(=O)c1csc(-c2ccc(C34CC5CC(CC(C5)C3)C4)cc2)n1 [Example 507]
0.1 to 0.5 µM | COc1cc(C(=O)O)ccc1NS(=O)(=O)c1coc(-c2ccc(C(C)(C)C)cc2)n1 [Example 465]
1 to 100 µM | Cc1nc(S(=O)(=O)Nc2ccc(C(=O)O)cc2)cs1 [Example 53]
0.1 to 0.5 µM | COc1cc(C(=O)O)ccc1NS(=O)(=O)c1ccc(C2CCC(c3ccccc3)CC2)cc1F (stereo not drawn) [Example 357]
0.1 to 0.5 µM | COc1cc(C(=O)O)ccc1NS(=O)(=O)c1csc(N2CCN(c3cccc(OC(F)(F)F)c3)CC2)n1 [Example 282]

IC50 | Compound
1 to 100 µM | CONC(=O)c1ccc(NS(=O)(=O)c2cnc(-c3ccc(F)cc3)s2)c(OC)c1 [Example 70]
< 0.1 µM | COc1cc(C(=O)O)c(F)cc1NS(=O)(=O)c1csc(-c2ccc([C@H]3CC[C@H](C(C)C)CC3)cc2)n1 [Example 730]
1 to 100 µM | O=C(O)c1cc2c(cc1F)OCCN2S(=O)(=O)c1ccc(F)cc1 [Example 9, 7-fluoro-4-((4-fluorophenyl)sulfonyl)-3,4-dihydro-2H-benzo[b][1,4]oxazine-6-carboxylic acid]
< 0.1 µM | COc1cc(C(=O)O)c(F)cc1NS(=O)(=O)c1csc(-c2ccc(-c3ccc4ncccc4c3)cc2)n1 [Example 639]
1 to 100 µM | COc1cc(C(=O)O)ccc1NS(=O)(=O)Nc1ccc(C(=O)O)cc1OC [Example 327]
0.5 to 1 µM | COc1cccc(-c2nc(S(=O)(=O)Nc3ccc(C(=O)O)cc3OC)cs2)c1 [Example 140]
< 0.1 µM | COc1cc(C(=O)O)ccc1NS(=O)(=O)c1cccc(-c2ccc(C3CCCCC3)cc2)c1F [Example 436]
0.1 to 0.5 µM | CCCCOc1c(F)c(-c2nc(S(=O)(=O)Nc3cc(F)c(C(=O)O)cc3OC)cs2)ccc1[C@H]1CC[C@H](C(C)C)CC1 [Example 589]
0.1 to 0.5 µM | COc1ccc(-c2ccc(S(=O)(=O)Nc3ccc(C(=O)O)cc3OC)s2)cc1 [Example 179]
0.1 to 0.5 µM | COc1cc(C(=O)O)c(F)cc1NS(=O)(=O)c1coc(-c2ccc(C3CCCCC3)cc2)n1 [Example 497]
< 0.1 µM | COc1cc(C(=O)O)ccc1NS(=O)(=O)c1csc(C#Cc2cccc(Cl)c2)n1 [Example 197]
< 0.1 µM | COc1cc(C(=O)O)c(F)cc1NS(=O)(=O)c1csc(-c2ccc(C3CC4C(C3)C4(C)C)cc2)n1 (stereo not drawn) [Example 535]
0.1 to 0.5 µM | COc1cc(C(=O)O)ccc1NS(=O)(=O)c1csc(-c2ccc3c(c2)OCCO3)n1 [Example 462]
0.1 to 0.5 µM | COc1cc(C(=O)O)c(F)cc1NS(=O)(=O)c1ccc(-c2ccc(C)cc2)s1 [Example 233]
< 0.1 µM | COc1cc(C(=O)O)ccc1NS(=O)(=O)c1coc(-c2ccc(OC(F)(F)F)cc2)n1 [Example 416]
< 0.1 µM | COc1cc(C(=O)O)c(F)cc1NS(=O)(=O)c1csc(-c2ccc([C@H]3CC[C@H](C(C)(C)C)CC3)c(F)c2C)n1 [Example 596]
< 0.1 µM | COc1cc(C(=O)O)c(F)cc1NS(=O)(=O)c1csc(-c2ccc([C@H]3CC[C@H](C(C)C)CC3)c(F)c2C)n1 [Example 806]
1 to 100 µM | COc1ccc(NS(=O)(=O)c2cnc(-c3ccc(F)cc3)s2)cc1Cl [Example 113]
0.1 to 0.5 µM | COc1cc(C(=O)O)c(F)cc1NS(=O)(=O)c1csc(-c2ccc(-c3cccnc3)cc2)n1 [Example 526]
1 to 100 µM | COc1cc(C(N)=O)ccc1NS(=O)(=O)c1cnc(-c2ccc(F)cc2)s1 [Example 120]
< 0.1 µM | COc1cc(C(=O)O)c(F)cc1NS(=O)(=O)c1csc(-c2ccc([C@H]3CC[C@H](C(C)(C)C)CC3)cc2C(F)(F)F)n1 [Example 780]
< 0.1 µM | COc1cc(C(=O)O)c(F)cc1NS(=O)(=O)c1csc(-c2ccc(C3=CCC(C)(C)CC3)c(F)c2)n1 [Example 512]

Source: patent US12384753B2, “17-beta-hydroxysteroid dehydrogenase type 13 inhibitors and methods of use thereof” (Enanta Pharmaceuticals, Inc., priority 2021, dated 2025)
